Measured values from article PMC8831244 (Nature methods, 2022).

Assays:
OxLight1 [1] = target: T1, OxLight1 (Homo sapiens, UniProt O43614, DEL254-292/I293E/K294R/L160H/M161K/Q254E); format: cell-based; settings: Almorexant 10 μM after OXB 5 μM
T1 sequence (O43614 with tags, fused parts or gaps L160H/M161K/DEL254-292/I293E/K294R): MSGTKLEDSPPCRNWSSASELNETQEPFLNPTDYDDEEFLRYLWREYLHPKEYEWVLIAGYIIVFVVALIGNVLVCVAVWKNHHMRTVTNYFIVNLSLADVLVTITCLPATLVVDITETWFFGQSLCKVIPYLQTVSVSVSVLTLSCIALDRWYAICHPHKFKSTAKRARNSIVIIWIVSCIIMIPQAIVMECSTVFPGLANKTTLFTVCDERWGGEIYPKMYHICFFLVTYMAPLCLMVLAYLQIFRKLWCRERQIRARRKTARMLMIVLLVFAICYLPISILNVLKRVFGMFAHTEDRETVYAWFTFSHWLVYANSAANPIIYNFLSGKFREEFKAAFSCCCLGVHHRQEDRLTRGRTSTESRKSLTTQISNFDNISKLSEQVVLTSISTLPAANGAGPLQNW

[2] = test system: OxLight1 in basal forebrain or LH; experiment: Photometry with polysomnographic recordings across sleep-wake states; format: in vivo, mouse; settings: 50 mg/kg, per os, mice
OxLight1 [3] = experiment: Photometry during anesthesia; format: in vivo, mouse; settings: isoflurane 2% 10 min or medetomidine 0.5 mg/kg i.p., mice
OxLight1 [4] = target: T1, OxLight1; format: cell-based; settings: 10 μM, HEK293T
OX2R [5] = experiment: Intracellular calcium signaling, OX2R-expressing HEK293T cells; format: cell-based, human; settings: orexin-A and orexin-B
OxLight1 [6] = target: T1, OxLight1; format: cell-based; settings: OxLight1, 10 μM orexin, HEK cells, mean ± SEM
OxLight1 [7] = target: T1, OxLight1; format: cell-based; settings: 10 μM, HEK293T, 37°C, mono-exponential fit, n = 8 dishes, mean ± SEM
OX2R [8] = experiment: beta-Arrestin-2 recruitment to OX2R, TIRF microscopy; format: cell-based, human; settings: agonist stimulation 15 min
OX2R [9] = experiment: Mini-G protein recruitment to OX2R, TIRF microscopy; format: cell-based, human; settings: OXB 50 nM

Molecule: CNC(=O)[C@@H](c1ccccc1)N1CCc2cc(OC)c(OC)cc2[C@@H]1CCc1ccc(C(F)(F)F)cc1 [Almorexant]
- reversal of fluorescence response (OxLight1 [1]): fully reversed

Molecule: Cc1ccc(-n2nccn2)c(C(=O)N2CCN(c3nc4cc(Cl)ccc4o3)CC[C@H]2C)c1 [Suvorexant]
- effect on OxLight1 response across sleep-wake states [2]: significantly reduced the response of OxLight1

Molecule: FC(F)OC(Cl)C(F)(F)F (stereo not shown) [isoflurane]
- effect on OxLight1 signal (OxLight1 [3]): significant decrease in OxLight1 signal

Molecule: Cc1cccc(C(C)c2cnc[nH]2)c1C (stereo not shown) [medetomidine]
- effect on OxLight1 signal (OxLight1 [3]): no change

Molecule: Dynorphin
- OxLight1 response to neuropeptide (OxLight1 [4]): lack of response

Molecule: orexin-B: endogenous orexin neuropeptide
- intracellular Ca2+ response (OX2R [5]): robust intracellular Ca^2+ responses
- ΔF/F0, maximal response (OxLight1 [6]): 859 ± 27%
- activation time constant τ (OxLight1 [7]): 618 ± 98 ms

B1: OX2R: wild-type human orexin type-2 receptor (protein, UniProt O43614 1-444, looked up)
Orexin receptor type 2: MSGTKLEDSPPCRNWSSASELNETQEPFLNPTDYDDEEFLRYLWREYLHPKEYEWVLIAGYIIVFVVALIGNVLVCVAVWKNHHMRTVTNYFIVNLSLADVLVTITCLPATLVVDITETWFFGQSLCKVIPYLQTVSVSVSVLTLSCIALDRWYAICHPLMFKSTAKRARNSIVIIWIVSCIIMIPQAIVMECSTVFPGLANKTTLFTVCDERWGGEIYPKMYHICFFLVTYMAPLCLMVLAYLQIFRKLWCRQIPGTSSVVQRKWKPLQPVSQPRGPGQPTKSRMSAVAAEIKQIRARRKTARMLMIVLLVFAICYLPISILNVLKRVFGMFAHTEDRETVYAWFTFSHWLVYANSAANPIIYNFLSGKFREEFKAAFSCCCLGVHHRQEDRLTRGRTSTESRKSLTTQISNFDNISKLSEQVVLTSISTLPAANGAGPLQNW
- β-arrestin-2 engagement (OX2R [8]): robust β-arrestin-2 engagement
- mini-G recruitment (OX2R [9]): selective and strong recruitment of mini-Gq
